From patent publication US20230142026A1, “COMPOSITION FOR ENHANCING DROUGHT AND OSMOTIC STRESS RESISTANCE, AND THEIR USES” (REPUBLIC OF KOREA (MANAGEMENT : RURAL DEVELOPMENT …, priority 2019, published 2023)

How the values were obtained:
[1] = system: pABRE-DRE::fLUC with OsPP2C51 or OsPP2C68; assay: pABRE-DRE::fLUC reporter in rice protoplasts co-expressing OsPP2C51 or OsPP2C68 (ABA signaling inhibitors); format: cell-based
Description: In addition, in order to investigate the signal transduction process activated by the S17 compound, the dephosphorylation enzyme, OsPP2C51 or OsPP2C68 gene, which inhibits ABA signaling, and reporter transporters (pABRE-DRE::fLUC, pUbi10::rLUC) were simultaneously transiently expressed in rice protoplasts and then treated with ABA and the S17 compound to identify the expression of the reporter.

Dongjin rice plants = assay: Water consumption of compound-treated rice plants in 50-ml tube; format: in vivo; conditions: three 14-day plants, control 19.9 g
Method: (§1) In addition, the third leaves of rice of the experimental and control groups treated with ABA (5 μM) and S17 (various concentrations, 10 and 20 μM), respectively, for one day were cut, and the water loss rate was compared therebetween. […] The amount of water in a 50-ml tube that was used for 2 days by three Dongjin rice plants which had been grown for 14 days in a nutrient solution was measured. The control group used 19.9 g of water on average for 2 days, the group treated with ABA (5 μM) used 8.7 g of water, and the groups treated with 10 μM S17 and 20 μM S17 used 14.7 g and 12.5 g of water, respectively (FIG. 2E).

rice [2] = assay: Water loss rate of cut third leaves of compound-treated rice; format: in vivo; conditions: one day
Method: as §1

rice [3] = assay: Drought resistance (drying experiment) of S17-treated rice; format: in vivo
Method: An experimental group, in which rice grown in a nutrient solution for 14 days was treated with S17, was compared with an untreated control group to determine whether or not S17 induces drought resistance. 3 days after treatment with S17, the nutrient solution fed to the experimental and control plants was removed to induce drought stress. The plants were allowed to be dried (for 12 to 24 hours) and water was fed again to the control and experimental groups, and the rate of the surviving plants was measured (FIGS. 2A and 2B). […] The dry weight of the experimental group was measured. […] This is considered to be due to the effect of inhibiting growth occurring during the treatment with S17.

rice [4] = assay: Osmotic stress resistance of S17-treated rice using mannitol; format: in vivo
Method: Thus, the effects of S17 on osmotic stress were detected. Osmotic stress was induced using mannitol in 14-day-old rice after treatment with S17. The experimental group treated with 5 μM and 10 μM of S17 and the untreated control group were treated with 0 mM, 100 mM, and 200 mM of mannitol, and the growth of these plants was observed (FIG. 3A).
In addition, in order to determine the osmotic stress resistance and growth-enhancing effect, osmotic stress was induced using mannitol in 14-day-old rice treated with S17. The experimental group treated with 5 μM and 10 μM of S17 and the untreated control group were treated with 0 mM, 100 mM, and 200 mM of mannitol, and then the water consumption of these plants and the dry weight after the experiment were measured (FIG. 3). […] As the concentration of mannitol increased, the amount of water used in plants decreased due to osmotic pressure stress.

pABRE-DRE::fLUC = assay: Induction of environmental stress response: pABRE-DRE::fLUC reporter in rice protoplasts; format: cell-based; conditions: 15 hours after treatment
Method: Rice protoplasts were transiently transformed with a pABRE-DRE::fLUC transporter, which induces the expression of the reporter gene, luciferase, in response to the plant environmental stress resistance hormone ABA (abscisic acid), and were then treated with 90 kinds of compounds having a structure similar to ABA received from the Korea Chemical Bank, and a compound that enhances the expression of the reporter was selected from the compounds and referred to as “S17”.
In order to verify the effect of inducing response to environmental stress of the S17 compound compared with ABA, pABRE-DRE::fLUC and the transformation marker pUbi10::rLUC transporter were transiently expressed in rice protoplasts, and then treated with ABA and the S17 compound. After 15 hours, the degree of expression of fLUC was detected.

CC1=CC(=O)CC(C)(C)[C@@]1(O)/C=C/C(C)=C\C(=O)O [ABA, abscisic acid, reference compound]
expression of fLUC with OsPP2C51 or OsPP2C68 [1]: inhibited
amount of water used for 2 days (Dongjin rice plants; 5 μM): 8.7 g
water loss rate (rice [2]; ABA 5 μM): decreased water loss rate

O=C(O)/C=C/c1ccsc1 [S17]
average survival rate (rice [3]; 14-day rice, 3 days after S17 treatment, dried 12 to 24 hours, water fed again, control 16.6%): 76.7%
dry weight relative to average weight of control group (rice [3]; after drying experiment): 91.5%
water consumption rate compared to the control group (rice [4]; 5 μM S17, 0 mM mannitol): 97.5%
amount of water used vs control not treated with S17 (rice [4]; 5 μM S17, 100 mM mannitol): 120%
dry weight compared to the group treated with 0 μM of S17 (rice [4]; 5 μM S17, 100 mM mannitol): 101%
amount of water used vs control not treated with S17 (rice [4]; 5 μM S17, 200 mM mannitol): 119%
dry weight compared to the group treated with 0 μM of S17 (rice [4]; 5 μM S17, 200 mM mannitol): 106%
dry weight compared to the group treated with 0 μM of S17 (rice [4]; 5 μM S17, no mannitol): 97%
leaf curling caused by osmotic stress (rice [4]; 5 μM and 10 μM S17, 0, 100, 200 mM mannitol): significantly reduced
water consumption rate compared to the control group (rice [4]; 10 μM S17, 0 mM mannitol): 78%
amount of water used vs control not treated with S17 (rice [4]; 10 μM S17, 100 mM mannitol): 106%
dry weight compared to the group treated with 0 μM of S17 (rice [4]; 10 μM S17, 100 mM mannitol): 104%
amount of water used vs control not treated with S17 (rice [4]; 10 μM S17, 200 mM mannitol): 128%
dry weight compared to the group treated with 0 μM of S17 (rice [4]; 10 μM S17, 200 mM mannitol): 112%
dry weight compared to the group treated with 0 μM of S17 (rice [4]; 10 μM S17, no mannitol): 82%
expression of fLUC with OsPP2C51 or OsPP2C68 [1]: induced
amount of water used for 2 days (Dongjin rice plants; 10 μM): 14.7 g
amount of water used for 2 days (Dongjin rice plants; 20 μM): 12.5 g
degree of expression of fLUC (pABRE-DRE::fLUC): significantly expressed
water loss rate (rice [2]; S17 10 and 20 μM): decreased water loss rate
